Data from patent EP0632806B1 (priority 1992, dated 1993).
Structures can show the parent of a compound that is named as a salt.

Key:
[1] = tested on: pentobarbital anaesthetized rats; details: rat, in vivo
[2] = tested on: pentobarbital anaesthetized rats subject to coronary artery occlusion; details: rat, in vivo

Q: How did the BP [1] turn out when C=CCN1CC[C@]23c4c5ccc(O)c4O[C@H]2C(=O)CC[C@@]3(O)[C@H]1C5 [naloxone, naloxone hydrochloride] was run?
A: 103±5

Q: And the HR [1]?
A: 379±6

Q: And the PR [1]?
A: 57±1

Q: And the QRS [1]?
A: 29±1

Q: And the QT [1]?
A: 41±1

Q: And the “incidence of VF arrhythmias” value [2]?
A: slightly decreased
